Each structure is given as a SMILES string.

The values that follow come from patent publication US10674729B2, “Synergistic combination of 3-IODO-2-propynyl-butylcarbamate and diamine” (priority 2016, dated 2020).

Common to all, as to assay: MIC and synergy testing in tryptic soy broth (turbidity reading)
Common to all, as to assay type: cell-based

In test [1] the test system is Pseudomonas aeruginosa (DSMZ#939). The note with it: 48 hours, 30° C., TSB. The protocol: (§1) The synergism of the biocides combination of the present invention was determined using the method described by Kull, F. C., et. al in Applied Microbiology 9:538-541 (1961). The formula to calculate the synergy index (SI) is Qa/QA+Qb/QB=SI Where • QA=concentration of compound A in ppm, acting alone produced an end point (growth/no growth) • Qa=concentration of compound A in ppm, in the mixture, which produced an end point (growth/no growth) • QB=concentration of compound B in ppm, acting alone produced an end point (growth/no growth) • Qb=concentration of compound B in ppm, in the mixture, which produced an end point (growth/no growth) […]
(§2) • 1. The test was executed with a Hamilton MLStarPlus robot using automated turbidity reading with BioTek Synergy H4 plate reader. • 2. […]
(§3) • The cultures were maintained as glycerol stocks at −80° C. in cryovials, are thawed and then 100 μl spread on MEA (malt extract agar) petri dishes. • The yeast strain plates were incubated at 28° C. for 1-2 days then harvested with buffer pH 5.0. • Based on total viable count results, the inoculum was prepared. • 7. […] Reading of the results was carried out by measuring absorbance at 600 nm for each sample at the beginning of the test (tzero) and after incubation (tendpoint). tendpoint was chosen at 48 hours for bacteria and 72 hours for yeast. […]

The subject of test [2] is Staphylococcus aureus (DSMZ#799). Particulars: 48 hours, 30° C., TSB. The protocol: as §1, §2, §3
Test [3] relates to Candida albicans (DSMZ#1386). The note with it: 72 hours, 30° C., TSB. How it is done: as §1, §2, §3

As for `CCCCNC(=O)OCC#CI` [IPBC, 3-Iodo-2-propynyl-butylcarbamate], the “MIC, single biocide” value stood at 1400.0 ppm in test [1], 21.6 ppm in test [2] and 6.6 ppm in test [3].
